Each block holds one compound with its values, some of them ahead of it. Numbered stars: 1 amine (or outer) side, 2 acyl side, 3 side chain; on linkers, the order of the positions; unused ones are H or OH. Bridge positions count the residues as written; N and C are the ends. Square brackets hold non-standard residues; d marks the D form. Peptide text beside a SMILES is read from it. * marks the point of attachment. pTerphenylCO(4''-OnC5H11) = CCCCCOc1ccc(-c2ccc(-c3ccc(C(=O)*)cc3)cc2)cc1; Orn(4R-OH,5R-OH) = O=C([C@H](C[C@@H](O)[C@@H](O)N[*:3])N[*:1])[*:2]; hTyr(3S-OH,4S-OH) = N[C@H](C(=O)O)[C@H](O)[C@@H](O)c1ccc(O)cc1; Pro(3S-OH,4S-Me) = C[C@H]1CN[C@H](C(=O)O)[C@H]1O; Hyp = O=C(O)[C@@H]1C[C@@H](O)CN1
What was measured:
[1] = test system: C. albicans strain SC5314; experiment: Checkerboard synergy test (FICI) of 2H with common antifungals; format: cell-based, Candida albicans; settings: combination with 2H; SC5314, YNB medium, 37 °C, 24 h; synergy FICI ≤ 0.5, additive or indifferent > 0.5 and < 2, antagonistic > 2
Method: The assay was carried out as published previously. SC5314, the most widely-used wild-type C. albicans strain, was obtained from Dr. Ronda Rolfes (Georgetown University). An aliquot of SC5314 was thawed and grown overnight in Sabouraud medium at 30 °C. After harvesting by centrifugation at 1200× g for 5 min, the cells were washed twice using PBS. Afterward, the inoculum was prepared in the YNB medium, a yeast synthetic medium, with an OD600 of 0.0005 (corresponding to 5 × 10^3–1 × 10^4 colony forming units (CFU)). Five common antifungals (Amphotericin B, Anidulafungin, Flucytosine, Clotrimazole, and Itraconazole) were prepared in either DMSO or ddH2O according to the manufacturer’s instructions. The antifungal drugs were serially diluted in DMSO or ddH2O and added to wells containing 100 µL inoculum in sterile 96-well culture plates. In addition, serial dilutions of 2H were added in combination with the above antifungals. Wells without any compounds were used as growth controls. Incubation at 37 °C followed, and optical density measurements at 600 nm were taken after 24 h with wells containing only medium as blanks. The fractional inhibitory concentration index (FICI) was calculated to test the synergistic effect between each of these common antifungals with 2H according to the published protocols.
A checkerboard (or chequerboard) assay was carried out to assess the fractional inhibitory concentration index (FICI). The widely-used wild-type C. albicans strain SC5314 was used. […] More antifungals may need to be examined to find potential synergistic effects with 2H.
Figure 1 Synergy testing between 2H and several common antifungal drugs (A–E); Checkerboard analysis of antifungal activity for combination of 2H and several common antifungals. The heat-map plots of relative growth (calculated by setting the growth without compounds as 100%) were presented: (A) Amphotericin B; (B) Anidulafungin; (C) Flucytosine; (D) Clotrimazole; (E) Itraconazole. Color scale for relative growth is provided on the right. (F) The Fractional Inhibitory Concentration Index (FICI) for the combination of 2H and several common antifungals. The FICI is interpreted as follows: a synergistic effect when FICI ≤ 0.5; an additive or indifferent effect when FICI > 0.5 and <2; an antagonistic effect when FICI > 2. TEXT PRINTED IN THE PICTURE: (F) Amphotericin B: FICI: 1.077±0.060 | (F) Anidulafungin: FICI: 1.108±0.084 | (F) Clotrimazole: FICI: 0.741±0.092 | (F) Flucytosine: FICI: 1.261±0.075 | (F) Itraconazole: FICI: 0.862±0.013

[2] = test system: C. albicans strain SC5314; parameters: method as in PMID 37173314; settings: combination with 2H; previous test; cited from earlier work
[3] = test system: C. neoformans Type Strain H99; experiment: Antifungal susceptibility (growth) test, MIC90; format: cell-based, Cryptococcus neoformans; settings: H99, YNB medium, 37 °C, 48 h
Method: (§1) We followed the Clinical and Laboratory Standards Institute for yeasts (CLSI M27 [80]) and our previously published protocol for the determination of MIC and MFC [33]. The C. neoformans Type Strain H99 was obtained from the laboratory of Dr. Joseph Heitman (Duke University). After growing in Sabouraud medium, this strain was resuspended in 35% glycerol, aliquoted, flash-frozen in liquid nitrogen, and stored in a −80 °C freezer.
(§2) For each experiment, a 100 µL frozen aliquot of H99 was thawed and diluted into 5 mL Sabouraud medium. After being grown at 30 °C overnight, the culture was pelleted and washed twice using PBS at room temperature. The inoculum was prepared using the YNB medium, a yeast synthetic medium, with 5 × 10^3–1 × 10^4 colony forming units (CFU) (corresponding to an OD600 of 0.0005). Sterile 96-well culture plates were used for growth tests. After aliquoting 100 µL of the inoculum into each well, serial dilutions of 2H or fluconazole were added to the wells and mixed well by pipetting up and down. After shaking at 37 °C for 48 h, growth was measured by absorbance at 600 nm using a spectrophotometric plate reader. Wells with only medium were used as blanks and wells with only inoculum were used as growth controls. […]
(§3) Figure 3 2H inhibits the growth of Cryptococcus neoformans and is fungicidal. […] (B) The MIC90 and MFC of 2H were determined on C. neoformans strain H99. […]

[4] = test system: C. neoformans Type Strain H99; experiment: Viability test, minimum fungicidal concentration (MFC); format: cell-based, Cryptococcus neoformans
Method: as §1, §2, §3

SMILES: CCCCCOc1ccc(-c2ccc(-c3ccc(C(=O)N[C@H]4C[C@@H](O)[C@@H](O)NC(=O)[C@@H]5[C@@H](O)[C@@H](C)CN5C(=O)[C@H]([C@@H](C)O)NC(=O)[C@H]([C@H](O)[C@@H](O)c5ccc(O)cc5)NC(=O)[C@@H]5C[C@@H](O)CN5C(=O)[C@H]([C@@H](C)O)NC4=O)cc3)cc2)cc1 [Anidulafungin] ({pTerphenylCO(4''-OnC5H11)}-[Orn(4R-OH,5R-OH)]T[Hyp][hTyr(3S-OH,4S-OH)]T[Pro(3S-OH,4S-Me)]; lactam 1-C)
- Fractional Inhibitory Concentration Index (FICI) [1]: 1.108±0.084

SMILES: Clc1ccccc1C(c1ccccc1)(c1ccccc1)n1ccnc1 [Clotrimazole]
- Fractional Inhibitory Concentration Index (FICI) [1]: 0.741±0.092

SMILES: C[C@@H]1[C@H](O)[C@@H](C)/C=C/C=C/C=C/C=C/C=C/C=C/C=C/[C@H](O[C@@H]2O[C@H](C)[C@@H](O)[C@H](N)[C@@H]2O)C[C@@H]2O[C@](O)(C[C@@H](O)C[C@@H](O)[C@H](O)CC[C@@H](O)C[C@@H](O)CC(=O)O[C@H]1C)C[C@H](O)[C@H]2C(=O)O [Amphotericin B]
- Fractional Inhibitory Concentration Index (FICI) [1]: 1.077±0.060

SMILES: CCC(C)n1ncn(-c2ccc(N3CCN(c4ccc(OCC5COC(Cn6cncn6)(c6ccc(Cl)cc6Cl)O5)cc4)CC3)cc2)c1=O (centres unmarked) [Itraconazole]
- Fractional Inhibitory Concentration Index (FICI) [1]: 0.862±0.013

SMILES: Nc1[nH]c(=O)ncc1F [Flucytosine]
- Fractional Inhibitory Concentration Index (FICI) [1]: 1.261±0.075

- MIC90 (minimum inhibitory concentration for 90% inhibition) [3]: 16 µM
SMILES: OC(Cn1cncn1)(Cn1cncn1)c1ccc(F)cc1F [Fluconazole]
- Synergistic effect between 2H and fluconazole [2]: no apparent synergistic effect
- Fungicidal or fungistatic [4]: fungistatic

Reference: paper PMC11595998, “Characterization of a New Hsp110 Inhibitor as a Potential Antifungal” (Journal of Fungi, 2024)
